Measured values as given in patent US20070265278A1, “2-PHENYL-INDOLES AS PROSTAGLANDIN D2 RECEPTOR ANTAGONISTS” (Aventis Pharmaceuticals Inc., priority 2005, published 2007).

Target: T1, DP receptor (Homo sapiens, UniProt Q13258)
T1 construct: using the human cell line LS174T, which expresses the endogenous DP receptor; endogenous in cells; host or cells: LS174T human cell line
T1 sequence (Q13258 1-359): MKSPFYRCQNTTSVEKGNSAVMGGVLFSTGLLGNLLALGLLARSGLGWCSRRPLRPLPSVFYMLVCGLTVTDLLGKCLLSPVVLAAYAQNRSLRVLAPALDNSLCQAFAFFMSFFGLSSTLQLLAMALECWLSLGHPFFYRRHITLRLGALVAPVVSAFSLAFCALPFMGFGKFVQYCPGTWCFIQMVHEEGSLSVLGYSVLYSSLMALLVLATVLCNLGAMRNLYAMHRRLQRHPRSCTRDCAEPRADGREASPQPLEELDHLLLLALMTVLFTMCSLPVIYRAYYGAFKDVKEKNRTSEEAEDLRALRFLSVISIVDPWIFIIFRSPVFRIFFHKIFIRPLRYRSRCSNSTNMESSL
Assay: SPA cAMP assay in human LS174 T cells (human DP functional assay)
Format: cell-based
Conditions: inhibition of PGD2 (15 nM)-stimulated cAMP, LS174T cells expressing endogenous DP receptor
Protocol: The inhibitory effects of the compounds according to the invention are assessed in a human DP functional assay. A cAMP assay is employed using the human cell line LS174T, which expresses the endogenous DP receptor. The protocol is similar to that described previously (Wright D H, Ford-Hutchinson A W, Chadee K, Metters K M, The human prostanoid DP receptor stimulates mucin secretion in LS174T cells, Br J Pharmacol. 131(8):1537-45 (2000)).
Protocol for SPA cAMP Assay in Human LS174 T Cells
• PGD2 (Cayman Chemical Cat#12010) • IBMX (Sigma Cat# 5879) • cAMP SPA direct screening assay system (Amersham code RPA 559) • 96-well cell plates (Wallac Cat# 1450-516) • Wallac 1450 Microplate Trilux scintillation counter (PerkinElmer) • Plate sealers • Eppendorf tubes • Dulbecco's Phosphate-Buffered Saline (PBS) (Invitrogen Cat#14040-133) • Distilled water • Vortex • Magnetic stirrer and stirrer bars Reagent Preparation:
All reagents should be allowed to equilibrate to room temperature before reconstitution.
Transfer the contents of the bottle to a 500 mL graduated cylinder by repeated washing with distilled water. Adjust the final volume to 500 mL with distilled water and mix thoroughly.
Dissolve each of the lysis reagents 1 and 2 in 200 mL assay buffer respectively. Leave at room temperature for 20 minutes to dissolve.
Add 30 mL of lysis buffer 2 to the bottle. Gently shake the bottle for 5 minutes.
Add 15 mL of lysis buffer 2 to each vial, and gently mix until the contents are completely dissolved.
Add 14 mL lysis buffer 2 to each vial and gently mix until the contents are completely dissolved.
Preparation of Immunoreagent
• 1) Add equal volumes of tracer, antiserum and SPA anti-rabbit reagent to a bottle, ensuring that a sufficient volume of this mixture is prepared for the desired number of wells (150 μL/well). • 2) Mix thoroughly. • 3) This immunoreagent solution should be freshly prepared before each assay and not re-used. Standard • 1) Add 1 mL lysis buffer 1 and gently mix until contents are completely dissolved. • 2) The final solution contains cAMP at a concentration of 512 pmol/mL. • 3) Label 7 polypropylene or polystyrene tubes, 0.2 pmol, 0.4 pmol, 0.8 pmol, 1.6 pmol, 3.2 pmol, 6.4 pmol and 12.8 pmol. • 4) Pipette 500 μL of lysis buffer 1 into all the tubes. • 5) Into the 12.8 pmol tube pipette 500 μL of stock standard (512 pmol/mL) and mix thoroughly. Transfer 500 μL from 12.8 pmol tube to the 6.4 pmol tube and mix thoroughly. Repeat this doubling dilution successively with the remaining tubes.
6) 50 μL aliquots in duplicate from each serial dilution and the stock standard will give rise to 8 standard levels of cAMP ranging from 0.2-25.6 pmol standard
Add 50 μL of […] IBMX into 100 mL PBS to make a final concentration of 100 μM and sonicate at 30° C. for 20 minutes.
Dissolve 1 mg PGD2 (FW, 352.5) in 284 μL DMSO to make 10 mM stock solution and store at […]. Before each assay, it is freshly prepared. Add 3 μL of 10 mM stock solution to 20 mL DMSO, mix it thoroughly, and transfer 10 mL to 40 mL PBS.
Compound dilution is carried out in Biomex 2000 (Beckman) using Method 1_cAMP DP 11 points.
5 μL of each compound from the 10 mM stock compound plates is transferred to the wells of a 96-well plate respectively as below.
Fill the plate with 45 μL of DMSO except column 7 is filled with 28 μL DMSO. Pipette column 1 thoroughly, and transfer 12 μL into column 7 parallel. Perform 1:10 serial dilution from column 1 to column 6 and from column 7 to column 11 by transfer 5 μL to 45 μL DMSO to make following concentrations:
Fill a new 96-well plate with 247.5 μL of compound dilution buffer. Transfer 2.5 μL of serially diluted compounds from above plate to the new plate (1:100 dilution) as following:
Cell Growth • 1. LS174 T are always grown in MEM (ATCC Cat# 30-2003), 10% FBS (ATCC Cat# 30-2020) and additional 2 mM L-glutamine, at 37° C. and 5% CO2. • 2. Warm 0.05% Trypsin and Versine (Invitrogen Cat# 25300-054) at 37° C. water bath. • 3. […]

SMILES	IC50 [nM]
O=C(O)Cc1c(-c2ccc(Cl)c(S(=O)(=O)NCc3ccc(C(F)(F)F)cc3)c2)[nH]c2ccccc12 [Example 1(y), {2-[4-Chloro-3-(4-trifluoromethyl-benzylsulfamoyl)-phenyl]-1H-indol-3-yl}-acetic acid]	19
O=C(O)Cc1c(-c2cc(C(F)(F)F)cc(S(=O)(=O)NC3CCCCC3)c2)[nH]c2ccccc12 [Example 12, [2-(3-cyclohexylsulfamoyl-5-trifluoromethyl-phenyl)-1H-indol-3-yl]-acetic acid]	232
O=C(O)Cc1c(-c2ccc(Cl)c(S(=O)(=O)N3CCCCC3)c2)[nH]c2ccccc12 [Example 1(p), {2-[4-Chloro-3-(piperidine-1-sulfonyl)-phenyl]-1H-indol-3-yl}-acetic acid]	678
O=C(O)Cc1c(-c2ccc(Cl)c(S(=O)(=O)NC3Cc4ccccc4C3)c2)[nH]c2ccccc12 [Example 1(d), {2-[4-Chloro-3-(indan-2-ylsulfamoyl)-phenyl]-1H-indol-3-yl}-acetic acid]	9.6
CCCCCCNS(=O)(=O)c1cc(-c2[nH]c3ccccc3c2CC(=O)O)ccc1Cl [Example 1(c), [2-(4-Chloro-3-hexylsulfamoyl-phenyl)-1H-indol-3-yl]-acetic acid]	31
CC(C)NS(=O)(=O)c1cc(-c2[nH]c3ccccc3c2CC(=O)O)ccc1Cl [Example 1(g), [2-(4-Chloro-3-isopropylsulfamoyl-phenyl)-1H-indol-3-yl]-acetic acid]	49
O=C(O)Cc1c(-c2ccc(Cl)c(S(=O)(=O)NC3CC4CCC3C4)c2)[nH]c2ccccc12 (stereo not drawn) [Example 1(b), {2-[3-(Bicyclo[2.2.1]hept-2-ylsulfamoyl)-4-chloro-phenyl]-1H-indol-3-yl}-acetic acid]	3
O=C(O)Cc1c(-c2ccc(Cl)c(NC(=O)C3CCCCC3)c2)[nH]c2ccccc12 [Example 14, {2-[4-chloro-3-(cyclohexanecarbonyl-amino)-phenyl]-1H-indol-3-yl}-acetic acid]	5860

Results, then the compound that gave them:

IC50 [nM]	SMILES
63	COc1ccc(-c2[nH]c3ccccc3c2CC(=O)O)cc1S(=O)(=O)NC1CCCCC1 [Example 10(i), [2-(3-Cyclohexylsulfamoyl-4-methoxy-phenyl)-1H-indol-3-yl]-acetic acid]
106	O=C(O)Cc1c(-c2cccc(S(=O)(=O)NC3CCCCC3)c2)[nH]c2ccccc12 [Example 10(f), [2-(3-Cyclohexylsulfamoyl-phenyl)-1H-indol-3-yl]-acetic acid]
1160	O=C(O)Cc1c(-c2ccc(S(=O)(=O)NC3CCCCC3)cc2)[nH]c2ccccc12 [Example 10(h), [2-(4-Cyclohexylsulfamoyl-phenyl)-1H-indol-3-yl]-acetic acid]
52	Cn1c(-c2ccc(Cl)c(S(=O)(=O)NC3CCCCC3)c2)c(CC(=O)O)c2ccccc21 [Example 2(a), [2-(4-Chloro-3-cyclohexylsulfamoyl-phenyl)-1-methyl-1H-indol-3-yl]-acetic acid]
4.2	O=C(O)Cc1c(-c2ccc(Cl)c(S(=O)(=O)NC3CCCCC3)c2)[nH]c2ccc(O)cc12 [Example 10(c), [2-(4-Chloro-3-cyclohexylsulfamoyl-phenyl)-5-hydroxy-1H-indol-3-yl]-acetic acid]
35	O=C(O)Cc1c(-c2ccc(Cl)c(S(=O)(=O)NCCC3CCCCC3)c2)[nH]c2ccccc12 [Example 1(h), {2-[4-Chloro-3-(2-cyclohexyl-ethylsulfamoyl)-phenyl]-1H-indol-3-yl}-acetic acid]
2	Cc1ccc(-c2[nH]c3ccccc3c2CC(=O)O)cc1S(=O)(=O)NC1CCCCC1 [Example 10(k), [2-(3-Cyclohexylsulfamoyl-4-methyl-phenyl)-1H-indol-3-yl]-acetic acid]
510	O=C(O)c1ccc2cc(-c3ccc(Cl)c(S(=O)(=O)NC4CCCCC4)c3)[nH]c2c1 [Example 16, 2-(4-Chloro-3-cyclohexylsulfamoyl-phenyl)-1H-indole-6-carboxylic acid]
132	NC(=O)Cc1c(-c2ccc(Cl)c(S(=O)(=O)NC3CCCCC3)c2)[nH]c2ccccc12 [Example 7(a), 2-[2-(4-Chloro-3-cyclohexylsulfamoyl-phenyl)-1H-indol-3-yl]-acetamide]
1	O=C(O)Cc1c(-c2ccc(Cl)c(S(=O)(=O)NC3CCCCC3)c2)[nH]c2cc(Cl)ccc12 [Example 10(d), [6-Chloro-2-(4-chloro-3-cyclohexylsulfamoyl-phenyl)-1H-indol-3-yl]-acetic acid]
